Results reported in patent publication US10821152B2, “Methods, agents and compositions for treatment of inflammatory conditions” (Betanien Hospital, priority 2014, dated 2020).
Non-standard residues stand in square brackets, D forms with d. Residues, ends and D or L forms follow the SMILES beside them. *: point of attachment. dPhe(4-NHCONH2) = NC(=O)Nc1ccc(C[C@@H](N)C(=O)O)cc1; Dihydroorotyl(S) = O=C1C[C@@H](C(=O)*)NC(=O)N1; dPhe(4-Cl) = N[C@H](Cc1ccc(Cl)cc1)C(=O)O; Phe(4-NH2) = Nc1ccc(C[C@H](N)C(=O)O)cc1; d2Nal = N[C@H](Cc1ccc2ccccc2c1)C(=O)O; Lys(iPr) = CC(C)NCCCC[C@H](N)C(=O)O; d3Pal = N[C@H](Cc1cccnc1)C(=O)O

Tests used:
Format in all cases: in vivo, human
[1] = tested on: patient with seropositive rheumatoid arthritis; assay: Degarelix with and without Methotrexate in rheumatoid arthritis; details: RA patient
Method: • person with seropositive rheumatoid arthritis with disease duration of 16 years • Fulfilled ACR 2010 classification criteria for rheumatoid arthritis Experimental Treatment and Assessment of Response • Previously failed 3 biologics (Etanercept, Actemra, and Rituximab). Last tried Rituximab November 2013, but increasing disease activity and blood tests (CRP and ESR) during the months thereafter until start of Degarelix 16 Jun. 2014. Concomitantly used stable Methotrexate 10 mg weekly since 1999. • Started Degarelix 240 mg inductions dose 16 Jun. 2014, with 80 mg every 2 weeks thereafter. • Disease activity reduced and they achieved an ACR60 response by 29 Sep. 2014 under the introduction of Degarelix and stable concomitant Methotrexate and Prednisolone. • 3 Oct. 2014 the patient's pulmonary physician stopped Methotrexate treatment due to pleural thickening, and CT imaging supporting lung fibrosis which was suspected to be due to Methotrexate. The patient had dyspnea which resolved once Methotrexate was stopped. • By 21 Nov. 2014, the patients disease activity score had increased from 5.1 (29 Sep. 14) to 5.7 (21 Nov. 2014), due to the discontinuation of Methotrexate.

[2] = tested on: patient with colitis; assay: Treatment of inflammatory bowel disease (fecal calprotectin, partial Mayo score)
Method: • person, diagnosed with colitis • Inflammatory bowel disease, colitis verified on colonic biopsy sample. Patients with inflammatory colitis usually have a higher incidence of autoimmune diseases. This patient also had ankylosing spondylitis. Experimental Treatment • September 2014 received first dose of Degarelix 240 mg sc. • Received Degarelix 80 mg sc approximately every two weeks thereafter. Assessment of Response • The inflammatory bowel diseases (IBD's), Crohn's disease and ulcerative colitis, are chronic relapsing, remitting disorders. The assessment of disease activity presents challenges to clinicians. Fecal biomarkers, such as fecal calprotectin, are a non-invasive method which can be used to aid managing clinicians. Calprotectin is released extracellularly in times of cell stress or damage and can be detected within feces and thus be used as a sensitive marker of intestinal inflammation. […] Fecal calprotectin levels are elevated in patients with both Crohn's disease and ulcerative colitis 1-2. There have been several studies looking at the use of fecal calprotectin to predict or monitor response to treatment. • In a study looking at 11 patients with relapsing IBD, fecal calprotectin was analysed at inclusion and after 8 weeks of treatment. Treatment was individualized medical therapy. A normalized fecal calprotectin concentration at 8 weeks predicted a complete response in 100% of patients,3 corresponding to endoscopic mucosal healing4. It has been shown that in patients with steroid induced clinical remission fecal calprotectin levels can remain elevated5-6. […] A level of <50 mg/kg is considered normal or remission for IBD. • There is no gold standard index in the measurement of colitis disease activity in clinical trials. Due to the invasive nature of endoscopies, the Mayo non-invasive colitis assessment of response score can be used to assess treatment effect of IBD in clinical trials9-11. […] Both the partial Mayo and total Mayo score are used to assess disease activity in clinical trials13. The partial Mayo score also had good discriminatory value between subjects in remission and those with active disease14. A clinical response has been defined as a 3 point or greater change in the partial Mayo score15.

[3] = tested on: patient with systemic sclerosis; assay: Treatment of systemic sclerosis; details: SSc patient
Excerpt: • person, diagnosed with systemic sclerosis • Fulfilled the 2013 EULAR/ACR classification criteria for systemic sclerosisl. • Diagnosis based upon Raynauds phenomenon, positive ANA, high titre anti-Scl 70 antibodies, marked skin changes typical of scleroderma, and esophageal dysmotility. • Previously tried Cyclophosphamide and Mycophenolate Mofetil. • Progressive disease and worsening scleroderma skin features, despite therapy. • Rapid progressive cardiac disease, verified by biopsy.
Experimental Treatment • 5th December 2014 received first dose of Degarelix 240 mg sc. • 9th January 2015 received second dose of Degarelix 80 mg sc.
[…] They are important factors in patients' evaluations of quality of life2. Their precise objective evaluation can be included in randomized controlled trials3. Their pathogenesis is unclear. Histologically, there is a plug-like hyperkeratosis with parakeratosis, homogenized collagen fibers and perivascular mononuclear cell infiltration4.

Q: What does the source list for `CC(=O)N[C@H](Cc1ccc2ccccc2c1)C(=O)N[C@H](Cc1ccc(Cl)cc1)C(=O)N[C@H](Cc1cccnc1)C(=O)N[C@@H](CO)C(=O)N[C@@H](Cc1ccc(NC(=O)[C@@H]2CC(=O)NC(=O)N2)cc1)C(=O)N[C@H](Cc1ccc(NC(N)=O)cc1)C(=O)N[C@@H](CC(C)C)C(=O)N[C@@H](CCCCNC(C)C)C(=O)N1CCC[C@H]1C(=O)N[C@H](C)C(N)=O` [Degarelix] (Ac-[d2Nal][dPhe(4-Cl)][d3Pal]S[Phe(4-NH2)](Dihydroorotyl(S))[dPhe(4-NHCONH2)]L[Lys(iPr)]P[dA]-NH2)?
A: disease activity score ([1]; 21 Nov. 2014, Degarelix after Methotrexate stopped 3 Oct. 2014): 5.7; disease activity score ([1]; 29 Sep. 14, Degarelix with Methotrexate): 5.1; ACR response ([1]; by 29 Sep. 2014, with stable concomitant Methotrexate and Prednisolone): ACR60; Fecal calprotectin (<50 normal) ([2]; 02.10.14): 48, normal mg/kg; Fecal calprotectin (<50 normal) ([2]; 10.01.15): 32, normal mg/kg; Fecal calprotectin (<50 normal) ([2]; 24.09.14 (started 10 Sep. 2014)): 79, high mg/kg; partial Mayo score ([2]; at 12 weeks): 0; partial Mayo score ([2]; baseline): 3; Digital tip ulcers/pitting scars ([3]; 5 weeks): 2; Modified Rodnan Skin Score ([3]; 5 weeks): 40; Sleep ([3]; 5 weeks): 5 hrs/night; VAS Fatigue ([3]; 5 weeks): 75; VAS Fingertip pain/pitting scars/ulcers ([3]; 5 weeks): 40; VAS Gastrointestinal Symptoms ([3]; 5 weeks): 80; VAS Global ([3]; 5 weeks): 40; VAS Lung/dyspnea ([3]; 5 weeks): 80; VAS Pain ([3]; 5 weeks): 10; VAS Raynauds/vascular ([3]; 5 weeks): 40; Digital tip ulcers/pitting scars ([3]; 6 weeks): 2; Modified Rodnan Skin Score ([3]; 6 weeks): 40; Sleep ([3]; 6 weeks): 5.5 hrs/night; VAS Fatigue ([3]; 6 weeks): 60; VAS Fingertip pain/pitting scars/ulcers ([3]; 6 weeks): 30; VAS Gastrointestinal Symptoms ([3]; 6 weeks): 60; VAS Global ([3]; 6 weeks): 40; VAS Lung/dyspnea ([3]; 6 weeks): 50; VAS Pain ([3]; 6 weeks): 10; VAS Raynauds/vascular ([3]; 6 weeks): 30; fingertip pain score (0-100 mm) ([3]; after 6 weeks of treatment (FIG. 12)): 30; Digital tip ulcers/pitting scars ([3]; baseline 5.12.14): 5; HAQ DI ([3]; baseline 5.12.14): 1.88; Modified Rodnan Skin Score ([3]; baseline 5.12.14): 42; Sleep ([3]; baseline 5.12.14): 2 hrs/night; VAS Fatigue ([3]; baseline 5.12.14): 100; VAS Fingertip pain/pitting scars/ulcers ([3]; baseline 5.12.14): 100; VAS Gastrointestinal Symptoms ([3]; baseline 5.12.14): 100; VAS Global ([3]; baseline 5.12.14): 100; VAS Lung/dyspnea ([3]; baseline 5.12.14): 100; VAS Pain ([3]; baseline 5.12.14): 100; VAS Raynauds/vascular ([3]; baseline 5.12.14): 100; fingertip pain score (0-100 mm) ([3]; baseline prior to treatment (FIG. 11)): 100 mm
